Assay results published in article PMC10974272, “Cytotoxic and Antiproliferative Activity of LASSBio-2208 and the Attempts to Determine Its Drug Metabolism and Pharmacokinetics In Vitro Profile” (Pharmaceuticals, 2024).
Where two headings read alike, the source gives them in different places.

Assays:
[1] = PAMPA—BBB; format: in vitro ADME; parameters: key to Classification BBB: permeable (CNS+); non-permeable (CNS−)
Description: (§1) To obtain information on the permeability potential of LASSBio-2208 on cell membranes, this derivative was tested using the parallel artificial membrane permeability assay (PAMPA) that is used as an in vitro model of passive diffusion and transcellular permeation. In this model, the permeability across two artificial membranes is measured: brain lipid from pig extract in dodecane (called PAMPA—BBB) and L-α soy phosphatidylcholine in dodecane (called PAMPA—TGI).
(§2) To perform the permeability assay we used a donor plate where the compounds (tests or controls) are diluted in a buffered medium, characterized by the presence of a synthetic membrane of polyvinylidene fluoride (PVDF) impregnated with a lipid solution, forming a barrier through which the compounds migrate through a diffusion process to the lower plate called the receptor.
(§3) The lipid mixture that impregnates the filter has a different constitution for the permeability tests for the blood–brain barrier (brain lipid from pig extract in dodecane) and gastrointestinal tract (L-α soy phosphatidylcholine in dodecane). In the PAMPA—BBB and PAMPA—GIT assays, the optical density values obtained in the reading at each selected wavelength, for each of the compounds were analysed in comparison with the values of several controls. In the case of the BBB, these values were used to elaborate an equation and determine the permeability coefficient (Pe), using a previously elaborated spreadsheet, and, for the PAMPA—GIT, these values were used to determine the absorbed fraction (Fa%), both using the Excel program. The permeability result for PAMPA—GIT classifies the compounds according to the percentage of absorbed fraction (Fa%), as follows: high intestinal permeability (70–100%), medium permeability (30–69%) or low permeability (0–29%), and the samples were diluted from a stock solution of 10 mM. The PAMPA—BBB model classifies the compounds only as follows: permeable (CNS+) or non-permeable (CNS−) and the assays were made from a stock solution of 1 mg for each compound [25, 40, 41, 42].

[2] = PAMPA—GIT; format: in vitro ADME; details: for Papp: PAMPA, read-out: Pe. Exp. GIT; for Classification GIT: by fraction absorbed
Description: as §1, §2, §3

[3] = Non-specific microsome protein binding; format: in vitro ADME; details: rat, pH 7.4; liver microsomes 0.5 mg protein/mL, 37 °C, 60 min; read-out: Percentage of ƒu(mic) (unbound fraction in nonspecific microsomal binding)
Description: Once such bonds are formed, the bound fraction would become incapable of being metabolized.
Liver microsomes were diluted with PBS pH 7.4 to a concentration of 0.5 mg protein/mL and 3 µL at 1 mM of the working test compound and solutions were mixed with 357 µL of liver microsome suspension. After mixing, duplicate 200 µL aliquots were immediately removed, while another microtubule acted as the control sample (T 0 h), and were quenched with 400 µL of cold acetonitrile containing analytical internal standards. The other samples were incubated at 37 °C at 100 rpm, for 60 min with the same subsequent treatment.

[4] = tested on: human prostate cancer cell line (PC-3); parameters: method as in PMID 37259357; details: cited from earlier work
[5] = tested on: breast cancer cell line (MCF-7); parameters: method as in PMID 37259357; details: cited from earlier work
[6] = tested on: human leukaemia cell line (CCRF-CEM); parameters: method as in PMID 37259357; details: cited from earlier work
[7] = tested on: T lymphoblast cell line (MOLT-4); parameters: method as in PMID 37259357; details: cited from earlier work
[8] = tested on: human prostate cancer cell line (PC-3); assay: MTT cell viability assay, PC-3; parameters: Emax: dose or concentration left out as unconfirmed
Description: (§8) After the incubation time, the plate was centrifuged (Universal centrifuge 320R Hettich, Kirchlengern, Germany) at 440× g, 10 min and 4 °C, then 110 µL of supernatant was removed and 10 µL of MTT solution was added and left to incubate for 3.5 h in the oven at 37 °C and 5% CO2. […] The CC50 was calculated using the GraphPad Prism 9.0 program. Each sample was tested in triplicate in three independent experiments (N3) [32, 33].

[9] = tested on: breast cancer cell line (MCF-7); assay: MTT cell viability assay, MCF-7
Description: as §8

[10] = tested on: T lymphoblast cell line (MOLT-4); assay: MTT cell viability assay, MOLT-4; details: Homo sapiens
Description: as §8

[11] = tested on: human leukaemia cell line (CCRF-CEM); assay: MTT cell viability assay, CCRF-CEM
Description: as §8

[12] = tested on: PC-3; assay: SRB cell viability/antiproliferative assay, PC-3; details: for Emax: SRB 48 h, PC-3, maximum effect at maximum concentration used
[13] = tested on: MCF-7; assay: SRB cell viability/antiproliferative assay, MCF-7; details: Homo sapiens, MCF7, 48 h
[14] = tested on: MOLT-4; assay: SRB cell viability/antiproliferative assay, MOLT-4; details: Homo sapiens, MOLT-4, 48 h
[15] = tested on: CCRF-CEM; assay: SRB cell viability/antiproliferative assay, CCRF-CEM; details: Homo sapiens, 48 h
[16] = PBMC viability assay by MTT; format: cell-based, human; details: MTT 48 h, non-tumour human PBMC
Description: (§4) The SI indicates how selective a compound is for a tumour cell line compared with a non-tumour cell line.
(§5) Human peripheral blood mononuclear cells (PBMCs) were used to determine the selectivity index (SI) and were obtained from healthy volunteers under a protocol approved by the Ethics Committee CAAE: 38257914.7.0000.5259. Immortalized cells were also obtained from the Rio de Janeiro Cell Bank (BCRJ).
(§6) First, 8 mL of blood from each healthy donor (3 people) was collected in a tube with EDTA in a 1:20 ratio to prevent the blood from clotting. In a 15 mL Falcon tube containing 4 mL of Ficoll-Paque, the 8 mL of blood collected was slowly added, letting it fall down the walls of the tube. It was centrifuged (Universal Centrifuge 320R Hettich) for 40 min at 750× g at 21 °C with acceleration 1 and brake 0. After centrifugation, in order to extract the ring of mononuclear cells, the supernatant above it was first carefully discarded so as not to disturb the ring. The ring was then slowly removed and placed in another 15 mL Falcon tube to which pure RPMI-1640 medium was added in a 1:1 ratio and centrifuged for 10 min at 580× g and 21 °C with acceleration 8 and brake 9 [34, 35].
(§7) The supernatant was discarded, and the pellet was resuspended in 1 mL of RPMI-1640 medium supplemented with 10% SBF and 1% antibiotic. An amount of 20 µL of cells were taken from the mixture and added to 380 µL of trypan blue dye for counting in the Neubauer chamber. Considering that 80% of PBMCs are lymphocytes and the rest are monocytes, the cells were plated with the aim of having 10^5 cell/well.

[17] = tested on: human peripheral blood mononuclear cells (hPBMC); assay: PBMC viability assay by MTT; format: cell-based; details: MTT 48 h, human PBMC; maximum cytotoxic response at 100 µM
Description: as §4, §5, §6, §7

Structure (SMILES): CN(C)C1CCN(C(=O)c2ccc(NC(=O)Nc3ccc(-c4nc(N5CCOCC5)nc(N5CCOCC5)n4)cc3)cc2)CC1 [Gedatolisib, gedatolisib]
- Classification BBB [1]: Insoluble
- Pe. Exp. BBB [1]: Insoluble
- Pe. Exp. BBB ([1]; listed as gedatolisib): insoluble
- Fraction Absorbed [2]: 48.4%
- Papp [2]: 1.74 ×10⁻⁶ cm/s
- fraction unbound at 60 min, 8.3 µM [3]: 0.503
- CC50 [4]: 0.54 µM
- CC50 [5]: 0.07 µM
- CC50 [6]: 0.03 µM
- CC50 [7]: 0.02 µM
- CC50 ([8]; Homo sapiens, 24 h): > 100 µM
- Emax ([8]; Homo sapiens, 24 h): 48%
- CC50 ([8]; Homo sapiens, 48 h): 5.05 µM
- Emax ([8]; Homo sapiens, 48 h): 60.5%
- CC50 ([8]; Homo sapiens, 72 h): 0.86 µM
- Emax ([8]; Homo sapiens, 72 h): 81.1%
- CC50 ([9]; Homo sapiens, MCF7, 24 h): 5.04 µM
- Emax ([9]; Homo sapiens, MCF7, 24 h): 79.9%
- CC50 ([9]; Homo sapiens, MCF7, 48 h): 0.21 µM
- Emax ([9]; Homo sapiens, MCF7, 48 h): 96.8%
- CC50 ([9]; Homo sapiens, MCF7, 72 h): 0.06 µM
- CC50 ([10]; MOLT-4, 24 h): 0.35 µM
- Emax ([10]; MOLT-4, 24 h): 97.2%
- CC50 ([10]; MOLT-4, 48 h): 0.08 µM
- Emax ([10]; MOLT-4, 48 h): 99.3%
- CC50 ([10]; MOLT-4, 72 h): 0.07 µM
- CC50 ([11]; 24 h): 0.31 µM
- Emax ([11]; 24 h): 98.6%
- CC50 ([11]; 48 h): 0.085 µM
- Emax ([11]; 48 h): 99.5%
- CC50 ([11]; 72 h): 0.09 µM
- Emax ([11]; 72 h): 100%
- CC50 ([12]; Homo sapiens, PC-3, 48 h): 6.16 µM
- Emax ([12]; Homo sapiens, PC-3, 48 h): > 50%
- CC50 [13]: 0.03 µM
- Emax [13]: 95.7%
- CC50 [14]: 3.68 µM
- Emax [14]: 69.2%
- CC50 [15]: 0.78 µM
- Emax [15]: 66.2%

Structure (SMILES): CN1CCc2c(c3ccccc3n2Cc2ccc(C(=O)NO)cc2)C1 [Tubastatin A, tubastatin A]
- CC50 at 48 h [16]: 85.7 µM
- Emax [17]: 58.2%
- Classification BBB [1]: CNS+
- Papp ([1]; read-out: Pe. Exp. BBB): 5.54 ×10⁻⁶ cm/s
- Fraction Absorbed [2]: 52.93%
- Papp [2]: 1.98 ×10⁻⁶ cm/s
- Classification GIT [2]: Medium (medium permeability (30–69%))
- Classification GIT ([2]; listed as tubastatin A): medium
- Fraction Absorbed ([2]; listed as tubastatin A): 52.9%
- fraction unbound at 60 min, 8.3 µM [3]: 0.131
- CC50 ([8]; Homo sapiens, 24 h): > 100 µM
- Emax ([8]; Homo sapiens, 24 h): 41.8%
- CC50 ([8]; Homo sapiens, 48 h): 65.9 µM
- Emax ([8]; Homo sapiens, 48 h): 67.8%
- CC50 ([8]; Homo sapiens, 72 h): 34.9 µM
- Emax ([8]; Homo sapiens, 72 h): 83.6%
- CC50 ([8]; MTT 24 h, PC-3): did not show any cytotoxic activity
- CC50 ([9]; Homo sapiens, MCF7, 24 h): > 100 µM
- Emax ([9]; Homo sapiens, MCF7, 24 h): 40.1%
- CC50 ([9]; Homo sapiens, MCF7, 48 h): > 100 µM
- Emax ([9]; Homo sapiens, MCF7, 48 h): 48.2%
- CC50 ([9]; Homo sapiens, MCF7, 72 h): 83.6 µM
- Emax ([9]; Homo sapiens, MCF7, 72 h): 56.8%
- CC50 ([9]; MTT 24 h, MCF-7): did not show any cytotoxic activity
- Emax ([10]; MOLT-4, 24 h): 94.6%
- CC50 ([10]; MOLT-4, 48 h): 7.5 µM
- Emax ([10]; MOLT-4, 48 h): 98.2%
- Emax ([10]; MOLT-4, 72 h): 98.7%
- CC50 ([11]; 24 h): 12.5 µM
- Emax ([11]; 24 h): 95.8%
- CC50 ([11]; 48 h): 9.38 µM
- Emax ([11]; 48 h): 99.1%
- CC50 ([11]; 72 h): 7.11 µM
- Emax ([11]; 72 h): 99.3%
- CC50 ([12]; Homo sapiens, PC-3, 48 h): > 100 µM
- Emax ([12]; Homo sapiens, PC-3, 48 h): < 35%
- Emax [12]: 39.3%
- CC50 [13]: 66 µM
- Emax ([13]; SRB 48 h, MCF-7, maximum effect at maximum concentration used): > 70%
- CC50 [14]: 10.5 µM
- Emax [14]: 54.4%
- CC50 [15]: 9.69 µM
- Emax [15]: 69.5%
